Tested on: 415267-285-R-J2-PDC complex spheroid viability
Test: Anticancer human tumor 415267-285-R-J2-PDC patient-derived breast carcinoma cell line growth inhibition [POLQ]
Details: for IC50: curve of first compound; for viability, T/C: stronger effect = lower value; active = viability on the fitted dose curve at most 10% of control; inactive = the rest
Outline: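 Three-cell-type spheroids modelling solid tumor plus stroma served as the readout system; POL inhibitors were tested individually and in combination, concentration ranges set by clinical Cmax where known.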

[1] = second compound 0.0316 µM, first compound 0.0316 µM
[2] = second compound 0.0316 µM, first compound 0.1 µM
[3] = second compound 0.0316 µM, first compound 0.316 µM
[4] = second compound 0.0316 µM, first compound 1 µM
[5] = second compound 0.0316 µM, first compound 3.16 µM
[6] = second compound 0.0316 µM, first compound 10 µM
[7] = second compound 0.1 µM, first compound 0.0316 µM
[8] = second compound 0.1 µM, first compound 0.1 µM
[9] = second compound 0.1 µM, first compound 0.316 µM
[10] = second compound 0.1 µM, first compound 1 µM
[11] = second compound 0.1 µM, first compound 3.16 µM
[12] = second compound 0.1 µM, first compound 10 µM
[13] = second compound 0.316 µM, first compound 0.0316 µM
[14] = second compound 0.316 µM, first compound 0.1 µM
[15] = second compound 0.316 µM, first compound 0.316 µM
[16] = second compound 0.316 µM, first compound 1 µM
[17] = second compound 0.316 µM, first compound 3.16 µM
[18] = second compound 0.316 µM, first compound 10 µM
[19] = second compound 1 µM, first compound 0.0316 µM
[20] = second compound 1 µM, first compound 0.1 µM
[21] = second compound 1 µM, first compound 0.316 µM
[22] = second compound 1 µM, first compound 1 µM
[23] = second compound 1 µM, first compound 3.16 µM
[24] = second compound 1 µM, first compound 10 µM
[25] = second compound 3.16 µM, first compound 0.0316 µM
[26] = second compound 3.16 µM, first compound 0.1 µM
[27] = second compound 3.16 µM, first compound 0.316 µM
[28] = second compound 3.16 µM, first compound 1 µM
[29] = second compound 3.16 µM, first compound 3.16 µM
[30] = second compound 3.16 µM, first compound 10 µM
[31] = second compound 10 µM, first compound 0.0316 µM
[32] = second compound 10 µM, first compound 0.1 µM
[33] = second compound 10 µM, first compound 0.316 µM
[34] = second compound 10 µM, first compound 1 µM
[35] = second compound 10 µM, first compound 3.16 µM
[36] = second compound 10 µM, first compound 10 µM
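Also: spheroids exposed to compounds for one week before readout.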
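For viability, T/C in this document: luminescence used as stand-in measure of viable cells; 100% = DMSO vehicle control viability.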

CC1COCCN1c1cc(-c2ccnn2C)c2ccnc(-c3ccn[nH]3)c2n1 (stereo unspecified) + COC1C(OC(N)=O)C(O)C(Oc2ccc3c(O)c(NC(=O)c4ccc(O)c(CC=C(C)C)c4)c(=O)oc3c2C)OC1(C)C
inactive: viability, T/C [1] 47% | viability, T/C [2] 12.6% | viability, T/C [7] 55.3% | viability, T/C [8] 11.5% | viability, T/C [13] 48.4% | viability, T/C [14] 11.8% | viability, T/C [19] 58.5% | viability, T/C [20] 11.5% | viability, T/C [25] 53.9% | viability, T/C [26] 15.8% | viability, T/C [31] 61.3% | viability, T/C [32] 12.8%
active: viability, T/C [3] 6.23% | viability, T/C [4] 5.27% | viability, T/C [5] 4.48% | viability, T/C [6] 3.41% | viability, T/C [9] 6.16% | viability, T/C [10] 3.96% | viability, T/C [11] 4.03% | viability, T/C [12] 4.38% | viability, T/C [15] 5.97% | viability, T/C [16] 5.08% | viability, T/C [17] 4.16% | viability, T/C [18] 5.11% | viability, T/C [21] 5.09% | viability, T/C [22] 6.05% | viability, T/C [23] 4.42% | viability, T/C [24] 4.44% | viability, T/C [27] 7.15% | viability, T/C [28] 5.85% | viability, T/C [29] 4.13% | viability, T/C [30] 4.16% | viability, T/C [33] 6.51% | viability, T/C [34] 4.55% | viability, T/C [35] 4.33% | viability, T/C [36] 4.73%
0.0412 µM: IC50 (second compound 10 µM)
0.039 µM: IC50 (second compound 1 µM)
0.0354 µM: IC50 (second compound 3.16 µM)
< 0.0316 µM: IC50 (second compound 0.0316 µM) | IC50 (second compound 0.316 µM)
0.0363 µM: IC50 (second compound 0.1 µM)

CCc1cc2c(N3CCc4c(cc(Cn5ccnc5)cc4-c4cn(C)nc4C(F)(F)F)C3=O)ccnc2c(OC)n1 + COC1C(OC(N)=O)C(O)C(Oc2ccc3c(O)c(NC(=O)c4ccc(O)c(CC=C(C)C)c4)c(=O)oc3c2C)OC1(C)C
inactive: viability, T/C [1] 92.8% | viability, T/C [2] 74.9% | viability, T/C [3] 88% | viability, T/C [4] 91.1% | viability, T/C [5] 83% | viability, T/C [6] 66.3% | viability, T/C [7] 89.4% | viability, T/C [8] 87% | viability, T/C [9] 83.2% | viability, T/C [10] 83.3% | viability, T/C [11] 77.6% | viability, T/C [12] 67.6% | viability, T/C [13] 89.8% | viability, T/C [14] 90.9% | viability, T/C [15] 71.5% | viability, T/C [16] 81% | viability, T/C [17] 75.3% | viability, T/C [18] 71.8% | viability, T/C [19] 88.6% | viability, T/C [20] 89.6% | viability, T/C [21] 79.5% | viability, T/C [22] 74.9% | viability, T/C [23] 79.5% | viability, T/C [24] 63.2% | viability, T/C [25] 97.4% | viability, T/C [26] 83.8% | viability, T/C [27] 78.8% | viability, T/C [28] 84.5% | viability, T/C [29] 73.5% | viability, T/C [30] 70.5% | viability, T/C [31] 99.2% | viability, T/C [32] 89.8% | viability, T/C [33] 84.9% | viability, T/C [34] 77.5% | viability, T/C [35] 73.6% | viability, T/C [36] 72.2%
> 10 µM: IC50 (second compound 0.0316 µM) | IC50 (second compound 0.1 µM) | IC50 (second compound 0.316 µM) | IC50 (second compound 1 µM) | IC50 (second compound 3.16 µM) | IC50 (second compound 10 µM)

COc1ccc([C@@H](O)c2cc(-c3ncnc4cc(N5CCOCC5)ccc34)c(F)cc2Cl)nn1 + COC1C(OC(N)=O)C(O)C(Oc2ccc3c(O)c(NC(=O)c4ccc(O)c(CC=C(C)C)c4)c(=O)oc3c2C)OC1(C)C
9.75 µM: IC50 (second compound 10 µM)
8.15 µM: IC50 (second compound 3.16 µM)
8.63 µM: IC50 (second compound 0.0316 µM)
8.03 µM: IC50 (second compound 0.1 µM)
inactive: viability, T/C [1] 104% | viability, T/C [2] 92.5% | viability, T/C [3] 97.9% | viability, T/C [4] 89% | viability, T/C [5] 78.4% | viability, T/C [6] 45.3% | viability, T/C [7] 95.3% | viability, T/C [8] 104% | viability, T/C [9] 97.9% | viability, T/C [10] 106% | viability, T/C [11] 99.5% | viability, T/C [12] 38.3% | viability, T/C [13] 101% | viability, T/C [14] 98% | viability, T/C [15] 101% | viability, T/C [16] 87.7% | viability, T/C [17] 77.9% | viability, T/C [18] 38.3% | viability, T/C [19] 94.3% | viability, T/C [20] 97.2% | viability, T/C [21] 97.1% | viability, T/C [22] 100% | viability, T/C [23] 76.2% | viability, T/C [24] 48% | viability, T/C [25] 105% | viability, T/C [26] 108% | viability, T/C [27] 97.1% | viability, T/C [28] 103% | viability, T/C [29] 79.7% | viability, T/C [30] 43.5% | viability, T/C [31] 102% | viability, T/C [32] 97.8% | viability, T/C [33] 98% | viability, T/C [34] 96.3% | viability, T/C [35] 90.9% | viability, T/C [36] 48.8%
7.09 µM: IC50 (second compound 0.316 µM)
9.18 µM: IC50 (second compound 1 µM)

Source: PubChem BioAssay AID1963847 (Molecular Pharmacology Branch, DTP, NCI, 2024)
